# Assay results as given in ChEMBL document CHEMBL3988442, “University of Dundee, Small-Polar-MMV Screening Library” (2021).
# Values joined by “and” are separate entries in the source; they are usually repeats but may differ in a detail not shown here. Equal entries are not always repeated.
# Legend:
# Wolbachia pipientis = assay: Anti-Wolbachia Cell-Based Screen; format: functional; conditions: for IC50: Wolbachia pipientis
# [1] = biological target: Polyketide synthase Pks13 (Mycobacterium tuberculosis (strain ATCC 25618 / H37Rv), UniProt I6X8D2); assay: Mycobacterium tuberculosis Polyketide synthase 13 Thioesterase (PKS13); format: functional
# Chain of Polyketide synthase Pks13 (I6X8D2 whole entry): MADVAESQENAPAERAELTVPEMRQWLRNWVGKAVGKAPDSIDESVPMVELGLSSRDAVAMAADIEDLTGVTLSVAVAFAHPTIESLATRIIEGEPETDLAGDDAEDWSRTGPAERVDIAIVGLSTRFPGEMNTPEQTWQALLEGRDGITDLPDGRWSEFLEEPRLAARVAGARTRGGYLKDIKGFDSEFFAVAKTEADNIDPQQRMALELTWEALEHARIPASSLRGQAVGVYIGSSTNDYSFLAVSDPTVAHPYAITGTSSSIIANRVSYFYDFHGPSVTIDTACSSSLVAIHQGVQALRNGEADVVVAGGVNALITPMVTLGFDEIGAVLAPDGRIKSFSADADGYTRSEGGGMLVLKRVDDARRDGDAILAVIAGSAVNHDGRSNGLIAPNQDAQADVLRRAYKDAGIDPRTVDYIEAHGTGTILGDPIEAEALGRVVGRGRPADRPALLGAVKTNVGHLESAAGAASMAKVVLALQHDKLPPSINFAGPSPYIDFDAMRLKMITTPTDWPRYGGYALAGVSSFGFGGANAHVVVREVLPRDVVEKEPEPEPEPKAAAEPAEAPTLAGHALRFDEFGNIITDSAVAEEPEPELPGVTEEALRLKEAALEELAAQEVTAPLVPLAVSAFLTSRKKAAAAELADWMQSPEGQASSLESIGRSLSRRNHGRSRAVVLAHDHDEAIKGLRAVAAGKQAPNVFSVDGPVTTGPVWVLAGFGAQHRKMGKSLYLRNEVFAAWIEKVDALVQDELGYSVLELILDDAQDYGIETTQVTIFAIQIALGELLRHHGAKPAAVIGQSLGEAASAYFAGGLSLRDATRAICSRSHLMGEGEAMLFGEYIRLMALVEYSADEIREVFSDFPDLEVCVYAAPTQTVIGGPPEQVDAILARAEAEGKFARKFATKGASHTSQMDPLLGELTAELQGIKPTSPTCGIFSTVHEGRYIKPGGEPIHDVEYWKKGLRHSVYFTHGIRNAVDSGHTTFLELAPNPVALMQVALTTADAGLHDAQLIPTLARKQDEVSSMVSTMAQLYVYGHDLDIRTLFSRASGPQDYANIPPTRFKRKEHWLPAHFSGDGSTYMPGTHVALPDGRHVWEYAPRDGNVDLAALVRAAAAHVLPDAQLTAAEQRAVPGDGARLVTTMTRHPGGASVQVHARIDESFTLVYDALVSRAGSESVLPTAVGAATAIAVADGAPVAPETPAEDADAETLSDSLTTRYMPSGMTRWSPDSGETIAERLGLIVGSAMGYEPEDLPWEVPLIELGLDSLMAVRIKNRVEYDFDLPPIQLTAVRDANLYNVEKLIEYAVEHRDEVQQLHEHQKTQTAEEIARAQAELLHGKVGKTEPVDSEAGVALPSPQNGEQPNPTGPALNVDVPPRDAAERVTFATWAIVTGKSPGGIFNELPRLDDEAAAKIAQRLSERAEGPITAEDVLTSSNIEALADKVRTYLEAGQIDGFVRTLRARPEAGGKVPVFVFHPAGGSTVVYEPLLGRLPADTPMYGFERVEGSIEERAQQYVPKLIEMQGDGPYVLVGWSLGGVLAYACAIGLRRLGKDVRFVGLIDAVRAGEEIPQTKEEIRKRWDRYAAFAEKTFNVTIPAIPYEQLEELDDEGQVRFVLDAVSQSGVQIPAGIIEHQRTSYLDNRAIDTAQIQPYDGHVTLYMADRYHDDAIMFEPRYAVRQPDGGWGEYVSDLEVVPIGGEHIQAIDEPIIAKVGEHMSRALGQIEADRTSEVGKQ
# [2] = microbe, parasite or virus in culture; conditions: Mycobacterium tuberculosis, 96 h, read-out: pIC50 (converted)
# [3] = microbe, parasite or virus in culture; conditions: Mycobacterium tuberculosis, 72 h, read-out: pIC50 (converted)
# Lysine--tRNA ligase = Lysine--tRNA ligase (Plasmodium falciparum (isolate 3D7), UniProt Q8IDJ8); assay: Pf-KRS-1 (Lysyl-RNA Synthetase-1, KRS-1, cytosolic KRS) from Plasmodium falciparum. Inhibitor assay, 384 well plate, luminescence read.; format: functional
# Chain of Lysine--tRNA ligase (Q8IDJ8 whole entry): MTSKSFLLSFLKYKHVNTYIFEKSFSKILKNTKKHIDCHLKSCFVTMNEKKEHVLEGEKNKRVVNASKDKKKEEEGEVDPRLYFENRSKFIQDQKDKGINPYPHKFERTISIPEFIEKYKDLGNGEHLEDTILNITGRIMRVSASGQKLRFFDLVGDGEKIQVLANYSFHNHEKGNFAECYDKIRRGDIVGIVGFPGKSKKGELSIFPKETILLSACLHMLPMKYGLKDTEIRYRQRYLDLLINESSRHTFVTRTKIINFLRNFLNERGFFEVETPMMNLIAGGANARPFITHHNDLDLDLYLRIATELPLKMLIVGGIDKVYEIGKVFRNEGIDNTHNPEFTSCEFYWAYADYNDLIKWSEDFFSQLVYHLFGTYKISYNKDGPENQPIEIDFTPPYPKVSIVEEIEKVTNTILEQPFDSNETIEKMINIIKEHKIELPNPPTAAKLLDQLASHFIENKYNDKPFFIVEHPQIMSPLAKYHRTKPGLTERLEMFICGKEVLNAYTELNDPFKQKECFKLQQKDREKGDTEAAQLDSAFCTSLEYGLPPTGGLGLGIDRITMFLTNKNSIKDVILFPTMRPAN
# ClpP1P2 = ClpP1P2 (Mycobacterium tuberculosis (strain ATCC 25618 / H37Rv), UniProt P9WPC3+P9WPC5); assay: in vitro assay to detect presence of AMC directly proportional to the activity of ClpP1P2. GHDDI collaboration.; format: functional
# Chain of ClpP1P2 (P9WPC5 whole entry): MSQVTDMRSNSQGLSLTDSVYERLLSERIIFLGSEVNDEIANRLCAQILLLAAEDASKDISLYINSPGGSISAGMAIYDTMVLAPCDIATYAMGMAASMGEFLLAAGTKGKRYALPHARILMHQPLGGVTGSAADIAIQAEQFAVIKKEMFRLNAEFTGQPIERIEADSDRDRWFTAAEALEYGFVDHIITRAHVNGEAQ
# Chain of ClpP1P2 (P9WPC3 whole entry): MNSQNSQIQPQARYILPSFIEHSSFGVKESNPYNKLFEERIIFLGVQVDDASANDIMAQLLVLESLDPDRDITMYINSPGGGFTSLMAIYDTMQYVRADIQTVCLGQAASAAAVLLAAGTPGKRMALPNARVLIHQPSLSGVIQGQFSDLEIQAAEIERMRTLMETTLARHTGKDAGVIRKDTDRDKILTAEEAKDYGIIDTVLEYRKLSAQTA
# Leishmania donovani = assay: Leishmania intramacrophage assay; format: functional, organism-based; conditions: Leishmania donovani
# [4] = biological target: T1, Coenzyme A biosynthesis bifunctional protein CoaBC (Mycobacterium tuberculosis (strain ATCC 25618 / H37Rv), UniProt P9WNZ1); assay: Biomol Green assay for MtCoaBC inhibitor, OD650 read; format: functional
# T1 sequence (P9WNZ1 whole entry): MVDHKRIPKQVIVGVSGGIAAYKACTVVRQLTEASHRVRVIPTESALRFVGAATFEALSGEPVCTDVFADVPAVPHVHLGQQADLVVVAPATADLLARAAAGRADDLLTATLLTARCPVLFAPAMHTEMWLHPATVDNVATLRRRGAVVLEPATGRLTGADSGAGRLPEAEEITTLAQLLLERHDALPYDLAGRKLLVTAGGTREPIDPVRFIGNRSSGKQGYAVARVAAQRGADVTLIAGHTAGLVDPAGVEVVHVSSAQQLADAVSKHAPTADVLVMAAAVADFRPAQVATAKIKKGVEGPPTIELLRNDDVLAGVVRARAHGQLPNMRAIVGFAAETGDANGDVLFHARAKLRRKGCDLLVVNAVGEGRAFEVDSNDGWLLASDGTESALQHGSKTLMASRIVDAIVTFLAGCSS
# [5] = In vitro enzyme assay to detect hydrolysis of chlorophenol red-beta-D-[…] directly proportional to the number of Toxoplasma stably expressing beta-galactosidase; format: functional, organism-based, Toxoplasma gondii; conditions: for IC50: Toxoplasma gondii
# Histidine--tRNA ligase = biological target: T2, Histidine--tRNA ligase (Leishmania infantum, UniProt A4I591); assay: Leishmania infantum Histidine tRNA synthetase (LdHisRS); format: functional
# T2 sequence (A4I591 whole entry): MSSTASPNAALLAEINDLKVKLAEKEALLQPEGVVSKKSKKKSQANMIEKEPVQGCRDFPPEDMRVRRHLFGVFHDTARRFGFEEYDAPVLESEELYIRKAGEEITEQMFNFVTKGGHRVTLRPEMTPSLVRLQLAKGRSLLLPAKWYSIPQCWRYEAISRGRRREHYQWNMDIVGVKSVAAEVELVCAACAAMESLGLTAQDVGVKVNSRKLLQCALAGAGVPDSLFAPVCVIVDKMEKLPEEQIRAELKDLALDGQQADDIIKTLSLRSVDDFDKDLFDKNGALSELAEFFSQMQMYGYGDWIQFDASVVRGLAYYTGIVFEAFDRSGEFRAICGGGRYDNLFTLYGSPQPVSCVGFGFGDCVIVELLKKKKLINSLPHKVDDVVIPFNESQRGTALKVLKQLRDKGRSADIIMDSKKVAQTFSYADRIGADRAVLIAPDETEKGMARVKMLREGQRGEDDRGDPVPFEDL
# Tryptophan--tRNA ligase = Tryptophan--tRNA ligase (Mycobacterium tuberculosis (strain ATCC 25618 / H37Rv), UniProt P9WFT3); assay: Biochemical assay for Mt-TrpRS; format: functional
# Chain of Tryptophan--tRNA ligase (P9WFT3 whole entry): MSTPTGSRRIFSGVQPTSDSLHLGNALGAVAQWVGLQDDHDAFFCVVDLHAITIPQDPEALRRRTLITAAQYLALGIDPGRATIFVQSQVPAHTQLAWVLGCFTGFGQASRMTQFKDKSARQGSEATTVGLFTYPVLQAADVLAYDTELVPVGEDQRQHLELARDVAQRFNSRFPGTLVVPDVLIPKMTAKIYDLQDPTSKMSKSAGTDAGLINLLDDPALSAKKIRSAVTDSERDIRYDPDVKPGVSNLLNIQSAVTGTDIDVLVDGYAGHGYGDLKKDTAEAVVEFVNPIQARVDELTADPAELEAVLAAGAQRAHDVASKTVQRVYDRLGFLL
SMILES,IC50 (Wolbachia pipientis) [µM],IC50 [1],IC50 (ClpP1P2) [µM],further results
CCN(CC)C(=O)c1ccc(Cl)c(NC(=O)c2cc[nH]n2)c1,3.96,,,pIC50 (Wolbachia pipientis): 5.355
CC(C)N(C(=O)c1csc(-c2ccoc2)n1)C1CCOCC1,> 10,,,
OC1(CN2CCC(Oc3cccc(C(F)(F)F)c3)CC2)CNCCOC1 (stereo unspecified),> 10,,,
Cc1c[nH]c(CN2CCOC(c3ccc(Cl)cc3)C2)c(C)c1=O (stereo unspecified),2.63,,,pIC50 (Wolbachia pipientis): 5.539
CC(=O)N1CCN(C(=O)CCn2c(C)nc3ccccc3c2=O)CC1,> 10,,,
CCc1nc(N)nc(N2CCCC3(CCN(C)CC3)CC2)c1C,> 10,,,
CNc1ncc(CN(C)c2ncnc3onc(C)c23)cn1,> 10,,,
CNC(=O)c1cn[nH]c1C1(C)CCCN(Cc2nccn2C(C)C)C1 (stereo unspecified),> 10,,,
Cc1cc(NCCCNc2cccnc2)n2nc(C)c(C)c2n1,> 10,,,pIC50 (Wolbachia pipientis): 5.158
CCOC(=O)c1sc2ccsc2c1CNC(=O)C(C)(C)C#N,6.09,,,pIC50 (Wolbachia pipientis): 5.24
Cc1nn(C)c2nc(N3CCCCC3c3nccs3)sc12 (stereo unspecified),0.156,,,pIC50 (Wolbachia pipientis): 7.075
Cc1ccc(F)c2c1N(C(=O)Cc1c(C)nn(C)c1C)CCC2,8.03,,,pIC50 (Wolbachia pipientis): 5.021
CCCNC(=O)c1ncn2c1CN(CC(C)C)S(=O)(=O)c1ccccc1-2,> 10,,,
Cc1c[nH]c(CN2CCOC(c3ccc(Cl)c(Cl)c3)C2)c(C)c1=O (stereo unspecified),3.83,,,pIC50 (Wolbachia pipientis): 5.368
CCCS(=O)(=O)NCc1ncc(C)c(OC)c1C,1.37,,,pIC50 (Wolbachia pipientis): 5.88
Cn1cc(NC(=O)c2cc[nH]n2)cc(Cl)c1=O,,> 100 µM,,IC50 [2]: > 50.1 µM; IC50 [3]: > 50.1 µM; IC50 (Lysine--tRNA ligase): > 50.1 µM
CN(C)c1cc(CNCc2ccc(N3CCOCC3)cc2)ccn1,> 10,,,
CC(C)C(=O)Nc1ccc(C(O)Cn2nc(-c3cccs3)oc2=O)cc1 (stereo unspecified),> 10,,,
COc1ccc(C(C#N)NC(=O)Cc2ccc(F)c(F)c2)c(OC)c1 (stereo unspecified),3,,,pIC50 (Wolbachia pipientis): 5.528
NC(=O)C1CCN(c2nc3nccc(-c4ccccn4)c3c(=O)[nH]2)CC1,> 10,,,
Cc1ncc(CN(C)Cn2nc(-c3ccccc3)oc2=O)s1,5,,,pIC50 (Wolbachia pipientis): 5.124
CC(C)N1CC(NC(=O)c2ccc(Cl)s2)CC1=O (stereo unspecified),> 10,,,
CCCOC(C)Cn1ccc2[nH]c(=O)c(C#N)cc2c1=O (stereo unspecified),,28.5 µM and 11.6 µM,> 100,IC50 (Lysine--tRNA ligase): > 50.1 µM

SMILES,IC50 (Wolbachia pipientis) [µM],IC50 [1],IC50 (ClpP1P2) [µM],further results
CCC(Nc1nc(C)nc2onc(C)c12)c1nc(C)c(C)s1 (stereo unspecified),2.54,,,pIC50 (Wolbachia pipientis): 5.592
CN(C)c1ncc(I)c(C2CCCCN2S(C)(=O)=O)n1 (stereo unspecified),> 10,,,
CN(CCc1ccccc1)Cc1cc(C(=O)N2CCN(C)C(=O)C2)no1,> 10,,,
CCc1sc(C(=O)NC2CC2)cc1C,> 10,,,
Cn1ccnc(Nc2ccc3c(c2)CCN3C(=O)c2ccoc2)c1=O,,,,pIC50 (Wolbachia pipientis): 5.166 and 5.523
COc1cc(CNC(=O)c2csc(Br)c2)ccn1,5.94,,,pIC50 (Wolbachia pipientis): 5.03
COCCNc1nc2c(c(NCC3CCOC3)n1)CCNCC2 (stereo unspecified),,> 100 µM,,IC50 (Leishmania donovani): > 50.1 µM
Cc1cc(NC(=O)c2ccccc2Br)n(C)n1,> 10,,,
O=C1O[C@@H]2CN(C3CCOCC3)C[C@@H]2N1CCCc1ccc(F)cc1,> 10,,,
CC1CCCN1Cc1cccc(C(=O)Nc2ccc3c(c2)CCC3=O)c1 (stereo unspecified),> 10,,,
Cc1cnc2c(C(=O)N3CCCC(OCc4ccccn4)C3)cnn2c1 (stereo unspecified),,> 100 µM,,IC50 [4]: > 30.2 µM
CC(C)(C)Nc1nc(-c2cccnc2)c(-c2ccnc(NCCO)n2)s1,,> 100 µM,,IC50 [5]: 5.53 µM
NC(=O)c1ccccc1-n1cc(-c2cccc(C(=O)O)c2)cn1,,> 100 µM,,IC50 (Histidine--tRNA ligase): 88.1 µM and > 100 µM
CCc1ncc2c(n1)CN(CC1CCCCO1)CC2 (stereo unspecified),,> 100 µM,,IC50 (Lysine--tRNA ligase): > 50.1 µM
COc1ccccc1N1CCC(CNS(=O)(=O)c2cccc(C#N)c2)C1 (stereo unspecified),,49.7 µM and > 100 µM,,IC50 [4]: > 30.2 µM
O=C(c1ccc(COc2ccc(Cl)cc2)o1)N1N=CCC1(O)C(F)(F)F (stereo unspecified),,17.3 µM and 24.2 µM,,pIC50 [5]: 5.524; IC50 [5]: 3.1 µM
Cn1nccc1CCC(=O)N1CCCC(c2cnccn2)C1 (stereo unspecified),,> 100 µM,,IC50 (Tryptophan--tRNA ligase): > 195 µM
CNS(=O)(=O)c1csc(C(=O)N(C)Cc2ccccc2C)c1,,> 100 µM,,IC50 (Tryptophan--tRNA ligase): > 195 µM
Cc1ncc2c(n1)CN(CCCc1nc3ccccc3o1)CC2,,> 100 µM,,IC50 (Lysine--tRNA ligase): > 50.1 µM
CC(C)c1cc(N2CCC(N)CC2)n2nccc2n1,,> 100 µM,,IC50 (Leishmania donovani): > 50.1 µM
CCOCCOCc1cccc(CNc2cncc(-n3cccn3)n2)c1,,29.9 µM and 19 µM,> 100,
CCn1cc(-c2cc(-c3ccn(C)c3)nc(N)c2C#N)cc1C#N,,51.8 µM and 43.6 µM,> 100,
CNC(=O)COc1ccc(CNc2cncc(-n3cccn3)n2)cc1,,11.8 µM and > 100 µM,> 100,

SMILES,IC50 (Wolbachia pipientis) [µM],IC50 [1],IC50 (ClpP1P2) [µM],further results
O=c1[nH]c(NC2CCCC2)nc2nccc(-c3ccco3)c12,,> 100 µM,> 100,
COC(=O)CNC(=O)c1sc(-c2ccc(Cl)s2)nc1C,,22.3 µM and > 100 µM,> 100,
CNC(=O)c1cc2c(nc1NCC1CC1)CCNCC2,,72 µM and 24.7 µM,> 100,
COc1cnc(N2CC(N3CCOCC3)C2)nc1-c1ccnn1C,,52.6 µM and 31.8 µM,> 100,IC50 [4]: > 50.1 µM; IC50 (Histidine--tRNA ligase): 5.05 µM and 10.5 µM
Cc1nc(-c2ccc(Cl)s2)sc1C(=O)NC(C)(C)C(N)=O,,> 100 µM and 21.1 µM,> 100,
COCC(=O)N1CCC(c2cc(C(F)(F)F)n3ccnc3n2)CC1,,28.4 µM and 36.3 µM,> 100,
CS(=O)(=O)c1ccc(-c2cc(C3CC3)c(C#N)c(N)n2)cc1,,10.4 µM and 11.5 µM,> 100,
Cc1ccc2[nH]c(CO[C@H]3CN(c4ccc(C#N)cn4)C[C@H]3F)nc2c1,,26.6 µM,7.25,IC50 [4]: > 50.1 µM; IC50 (Histidine--tRNA ligase): 27.1 µM and 37.7 µM; IC50 (Lysine--tRNA ligase): > 50.1 µM
CC(C)N(CC(N)=O)C(=O)c1cnc(-c2ccc3c(c2)OCO3)s1,,11.1 µM and 12.4 µM,> 100,
CCCOc1ccc(Cl)cc1CNc1ncnc2oc(C)nc12,,12.3 µM and 19.8 µM,,IC50 [5]: 12.6 µM; IC50 [2]: > 50.1 µM; IC50 [3]: > 50.1 µM
CNC(=O)c1cc2c(nc1NC(C)C)CCNCC2,,60.3 µM and 25 µM,> 100,
CC(C)c1cc(CN2CCC(CC(=O)O)CC2)no1,,12.3 µM and 7.76 µM,,IC50 (Tryptophan--tRNA ligase): > 195 µM
CCOc1cc(/C=C/c2ncc(C(=O)O)s2)cc(Br)c1O,,> 100 µM and 24.3 µM,,IC50 [4]: > 30.2 µM
CCCn1c(N2CCCC2)nc2c(C)nn(C)c2c1=O,,> 100 µM,,IC50 [5]: > 50.1 µM
CC(C)Nc1nc2c(cc1C(=O)NCC1CC1)CCN(CC1CC1)CC2,,14.7 µM and 35.6 µM,> 100,
CNC(=O)c1cc2c(nc1NCC(C)C)CCN(S(C)(=O)=O)CC2,,> 100 µM and 16.4 µM,> 100,
CCc1n[nH]c(C2CN(C(=O)c3nc(C)n4ccccc34)CCO2)n1 (stereo unspecified),,18.2 µM and 11.7 µM,> 100,
CCC1(CC)Cc2ccccc2-c2nc(NCCCO)[nH]c(=O)c21,,21.9 µM and 23.7 µM,> 100,
CC(=O)N1CCC(c2cc(C(F)(F)F)nc3nccn23)CC1,,16.7 µM and 13.5 µM,> 100,
O=C(c1ccccc1)C1CCN(c2cncc(-n3cccn3)n2)CC1,,29 µM and 33.8 µM,,IC50 (Leishmania donovani): > 50.1 µM
Cn1cnc(-c2nc(C(=O)NCCN3CCOCC3)c3ccccn23)c1,,15.6 µM and 34.1 µM,> 100,
CC(C)Nc1nc2c(cc1C(=O)NCC1CC1)CCNCC2,,19.7 µM and 19.3 µM,> 100,
CNC(=O)c1cc2c(nc1NCC(C)C)CCN(c1ccncn1)CC2,,25.7 µM and 29.5 µM,> 100,
